In PubChem BioAssay (NCI):
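Five compound concentrations were applied to cells in 96-well plates for 48 hours; endpoints were derived by simple linear interpolation of the resulting dose-response curve. GI50 = concentration required for 50% inhibition of growth. The concentration for full growth arrest is given as TGI.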

Legend:
Assay in all cases: NCI anticancer screen, dose series, 48 h
786-0 renal = system: 786-0 renal
A498 renal = system: A498 renal
A549 NSCLC = system: A549 NSCLC
ACHN renal = system: ACHN renal
BT-549 breast = system: BT-549 breast
CAKI-1 renal = system: CAKI-1 renal
CCRF-CEM leukemia = system: CCRF-CEM leukemia
COLO 205 colon = system: COLO 205 colon
DU-145 prostate = system: DU-145 prostate
EKVX NSCLC = system: EKVX NSCLC
HCC-2998 colon = system: HCC-2998 colon
HCT-116 colon = system: HCT-116 colon
HCT-15 colon = system: HCT-15 colon
HL-60(TB) leukemia = system: HL-60(TB) leukemia
HOP-62 NSCLC = system: HOP-62 NSCLC
HOP-92 NSCLC = system: HOP-92 NSCLC
HS 578T breast = system: HS 578T breast
HT29 colon = system: HT29 colon
IGROV1 ovarian = system: IGROV1 ovarian
K-562 leukemia = system: K-562 leukemia
KM12 colon = system: KM12 colon
LOX IMVI melanoma = system: LOX IMVI melanoma
M14 melanoma = system: M14 melanoma
MALME-3M melanoma = system: MALME-3M melanoma
MCF7 breast = system: MCF7 breast
MDA-MB-231 breast = system: MDA-MB-231 breast
MDA-MB-435 = system: MDA-MB-435
MOLT-4 leukemia = system: MOLT-4 leukemia
NCI-H226 lung = system: NCI-H226 lung
NCI-H23 lung = system: NCI-H23 lung
NCI-H460 lung = system: NCI-H460 lung
NCI-H522 lung = system: NCI-H522 lung
NCI/ADR-RES ovarian = system: NCI/ADR-RES ovarian
OVCAR-3 ovarian = system: OVCAR-3 ovarian
OVCAR-4 ovarian = system: OVCAR-4 ovarian
OVCAR-5 ovarian = system: OVCAR-5 ovarian
OVCAR-8 ovarian = system: OVCAR-8 ovarian
PC-3 prostate = system: PC-3 prostate
RPMI-8226 leukemia = system: RPMI-8226 leukemia
RXF 393 renal = system: RXF 393 renal
SF-268 CNS = system: SF-268 CNS
SF-295 CNS = system: SF-295 CNS
SF-539 CNS = system: SF-539 CNS
SK-MEL-2 melanoma = system: SK-MEL-2 melanoma
SK-MEL-28 melanoma = system: SK-MEL-28 melanoma
SK-MEL-5 melanoma = system: SK-MEL-5 melanoma
SK-OV-3 ovarian = system: SK-OV-3 ovarian
SN12C renal = system: SN12C renal
SNB-19 CNS = system: SNB-19 CNS
SNB-75 CNS = system: SNB-75 CNS
SR leukemia = system: SR leukemia
SW-620 colon = system: SW-620 colon
T-47D breast = system: T-47D breast
TK-10 renal = system: TK-10 renal
U251 CNS = system: U251 CNS
UACC-62 melanoma = system: UACC-62 melanoma
UO-31 renal = system: UO-31 renal

Q: Which results are given for `CCOC(=O)c1c(C)nc2c(c1N)/C(=C/c1ccc(OC)cc1)C(=O)N2Cc1ccc(F)cc1`?
A: GI50 (786-0 renal): 165 nM; TGI (786-0 renal): 389 nM; GI50 (A498 renal): 535 nM; TGI (A498 renal): 2600 nM; GI50 (A549 NSCLC): 385 nM; TGI (A549 NSCLC): 2390 nM; GI50 (ACHN renal): 137 nM; TGI (ACHN renal): 529 nM; GI50 (BT-549 breast): 169 nM; TGI (BT-549 breast): 365 nM; GI50 (CAKI-1 renal): 250 nM; TGI (CAKI-1 renal): 1310 nM; GI50 (CCRF-CEM leukemia): 109 nM; TGI (CCRF-CEM leukemia): 514 nM; GI50 (COLO 205 colon): 146 nM; TGI (COLO 205 colon): 333 nM; GI50 (DU-145 prostate): 279 nM; TGI (DU-145 prostate): 1120 nM; GI50 (EKVX NSCLC): 270 nM; TGI (EKVX NSCLC): 2260 nM; GI50 (HCC-2998 colon): 255 nM; TGI (HCC-2998 colon): 762 nM; GI50 (HCT-116 colon): 134 nM; TGI (HCT-116 colon): 360 nM; GI50 (HCT-15 colon): 127 nM; TGI (HCT-15 colon): 543 nM; GI50 (HL-60(TB) leukemia): 140 nM; TGI (HL-60(TB) leukemia): 474 nM; GI50 (HOP-62 NSCLC): 497 nM; TGI (HOP-62 NSCLC): 2170 nM; GI50 (HOP-92 NSCLC): 263 nM; TGI (HOP-92 NSCLC): 859 nM; GI50 (HS 578T breast): 479 nM; TGI (HS 578T breast): > 100000 nM; GI50 (HT29 colon): 171 nM; TGI (HT29 colon): 587 nM; GI50 (IGROV1 ovarian): 235 nM; TGI (IGROV1 ovarian): 733 nM; GI50 (K-562 leukemia): 207 nM; TGI (K-562 leukemia): 1010 nM; GI50 (KM12 colon): 243 nM; TGI (KM12 colon): 844 nM; GI50 (LOX IMVI melanoma): 164 nM; TGI (LOX IMVI melanoma): 340 nM; GI50 (M14 melanoma): 191 nM; TGI (M14 melanoma): 443 nM; GI50 (MALME-3M melanoma): 185 nM; TGI (MALME-3M melanoma): 440 nM; GI50 (MCF7 breast): 195 nM; TGI (MCF7 breast): 1510 nM; GI50 (MDA-MB-231 breast): 236 nM; TGI (MDA-MB-231 breast): 760 nM; GI50 (MDA-MB-435): 201 nM; TGI (MDA-MB-435): 469 nM; GI50 (MOLT-4 leukemia): 221 nM; TGI (MOLT-4 leukemia): 745 nM; GI50 (NCI-H226 lung): 261 nM; TGI (NCI-H226 lung): 1030 nM; GI50 (NCI-H23 lung): 262 nM; TGI (NCI-H23 lung): 1030 nM; GI50 (NCI-H460 lung): 257 nM; TGI (NCI-H460 lung): 744 nM; GI50 (NCI-H522 lung): 125 nM; TGI (NCI-H522 lung): 296 nM; GI50 (NCI/ADR-RES ovarian): 299 nM; GI50 (OVCAR-3 ovarian): 109 nM; TGI (OVCAR-3 ovarian): 510 nM; GI50 (OVCAR-4 ovarian): 392 nM; TGI (OVCAR-4 ovarian): 6250 nM; GI50 (OVCAR-5 ovarian): 246 nM; TGI (OVCAR-5 ovarian): 561 nM; GI50 (OVCAR-8 ovarian): 257 nM; TGI (OVCAR-8 ovarian): 1060 nM; GI50 (PC-3 prostate): 277 nM; TGI (PC-3 prostate): 1000 nM; GI50 (RPMI-8226 leukemia): 224 nM; TGI (RPMI-8226 leukemia): 653 nM; GI50 (RXF 393 renal): 140 nM; TGI (RXF 393 renal): 329 nM; GI50 (SF-268 CNS): 285 nM; TGI (SF-268 CNS): 1210 nM; GI50 (SF-295 CNS): 1370 nM; TGI (SF-295 CNS): 3590 nM; GI50 (SF-539 CNS): 189 nM; TGI (SF-539 CNS): 457 nM; GI50 (SK-MEL-2 melanoma): 238 nM; TGI (SK-MEL-2 melanoma): 729 nM; GI50 (SK-MEL-28 melanoma): 183 nM; TGI (SK-MEL-28 melanoma): 374 nM; GI50 (SK-MEL-5 melanoma): 333 nM; TGI (SK-MEL-5 melanoma): 1480 nM; GI50 (SK-OV-3 ovarian): 692 nM; TGI (SK-OV-3 ovarian): 6850 nM; GI50 (SN12C renal): 244 nM; TGI (SN12C renal): 750 nM; GI50 (SNB-19 CNS): 532 nM; TGI (SNB-19 CNS): 1870 nM; GI50 (SNB-75 CNS): 1030 nM; TGI (SNB-75 CNS): 4830 nM; GI50 (SR leukemia): 81.6 nM; TGI (SR leukemia): 726 nM; GI50 (SW-620 colon): 140 nM; TGI (SW-620 colon): 349 nM; GI50 (T-47D breast): 148 nM; TGI (T-47D breast): 1910 nM; GI50 (TK-10 renal): 264 nM; TGI (TK-10 renal): 1000 nM; GI50 (U251 CNS): 197 nM; TGI (U251 CNS): 508 nM; GI50 (UACC-62 melanoma): 160 nM; TGI (UACC-62 melanoma): 317 nM; GI50 (UO-31 renal): 132 nM; TGI (UO-31 renal): 301 nM
